Results reported in patent US12486255B2, “Modulators of RAS GTPase” (Tosk, Inc., priority 2018, dated 2025).

Columns and labels:
[1] = Pharmacokinetic study in mice; assay type: in vivo; conditions: ip, 3 mg/kg, CD-1 mice, 3 mg/kg
Experimental: Pharmacokinetic studies were carried out using 10 weeks old CD-1 mice. Structure 2 and Structure 3 were injected ip, 3 mg/kg and 10 mg/kg, respectively, at 8 time points (0, 0.25, 0.5, 1, 2, 4, 8 and 24 hours post-dose). Blood was collected from 3 animals/time point and concentrations of Structure 2 in plasma determined using LC/MS.

SW480 cells = test: Cytotoxicity assay, CellTiter-Glo 2.0, SW480 cells; assay type: cell-based; conditions: SW480, human colon cancer cell line expressing kRAS G12V; 48 hours
Experimental: FIG. 2, panels A-B, illustrate the cytotoxicity of Structure 2 and Structure 3 on SW480 cells. The cytotoxicity of compounds of interest was tested against the human colon cancer cell line SW480 as described in the experimental section. SW480 cells express a mutant G12V kRAS. Compounds were incubated with cells for 48 hours and the assay was developed using Cell Titer Glo 2.0. IC50 vales were determined using GraphPad Prism 4.
(§1) Compounds were assayed for inhibition of cell proliferation and killing cancer cells. Cytotoxicity assays were conducted according to the following general procedure. SW480, SW48, SW900, SW620 were all maintained in Leibowitz L15 media supplemented with 10% fetal bovine serum and 1% PenStrep and grown in a 37° C. incubator without supplemental CO2. Capan-1 cells were maintained in Iscove's Modified Dulbecco's Medium (ATCC 30-2005) containing 20% fetal bovine serum and 1% PenStrep and grown in a 37° C. incubator containing 5% CO2.
(§2) For dose-response assays, SW480 cells were plated into 96 well plates (1 million/plate, ˜10,000/well, 250 μL media/well). Cells were allowed to settle and adhere to plate bottom overnight Compounds were placed in 500 μL media and mixed. Then 250 μL compounds+media was placed in an intermediate plate in row A. Rows B through H were filled with 125 μL media. […] Luminescence was read with FLx800 (BioTek Instruments).

[2] = test system: cardiomyocyte cell line H9C2; test: Cytotoxicity assay, H9C2 cells; assay type: cell-based; conditions: rat cardiomyocyte cell line H9C2
SW900 cells = test: Cytotoxicity assay, CellTiter-Glo 2.0, SW900 cells; assay type: cell-based; conditions: SW900, human lung cancer cell expressing kRAS G12V; 48 hours
Experimental: FIG. 4, panels A-B, illustrates the cytotoxicity of Structure 2 and Structure 3 on SW900 cells. The cytotoxicity of compounds of interest were tested against the human lung cancer cell line SW900 as described in the experimental section. SW900 cells express a G12V mutant kRAS. Compounds were incubated with cells for 48 hours and the assay was developed using Cell Titer Glo 2.0. IC50 vales were determined using GraphPad Prism 4.
as §1, §2

HT-1080 cells = test: Cell morphology assay; assay type: cell-based, human; conditions: 24 hours, 1.2-100 μM, Alexa Fluor 488 Phalloidin
Experimental: FIG. 7, panels A-F, illustrate the effect of an exemplary compound of Structure 2 on the HT-1080 cells in a cell morphology assay. Effect of Structure 2 on the HT-1080 cells in cell morphology assay. HT1080 cells were seeded in 6-well plates at 300,000 per plate, incubated overnight and various amounts of Structure 2 (compound 1) in the DMSO vehicle or vehicle control added. After 24 hours, cells were washed, fixed with formaldehyde, stained with Alexa Fluor 488 Phalloidin and imaged using a fluorescence microscope. […]
An assay was performed (see e.g., Kato-Stankiewicz et al., Inhibitors of RAS/Raf-1 interaction identified by two-hybrid screening revert RAS-dependent transformation phenotypes in human cancer cells. Proc Natl Acad Sci USA. 2002; 99: 14398-403) to evaluate the ability of an inhibitor to dampen the RAS/RAF/MEK/ERK pathway and provide a reversion of cell appearance from a rounded to a flat, elongated morphology (Paterson et al., Activated nRAS controls the transformed phenotype of HT1080 human fibrosarcoma cells. Cell. 1987 Dec. 4; 51 (5):803-12). […] Cells were then washed 2 times with PBS and imaged using a Zeiss Axiovert 25 fluorescence microscope.

SW48 cells = test: Cytotoxicity assay, CellTiter-Glo 2.0, SW48 cells; assay type: cell-based; conditions: SW48, human colon cancer cell line expressing wild type kRAS (EGF receptor mutation); 48 hours
Experimental: FIG. 3, panels A-B, illustrates the cytotoxicity of Structure 2 and Structure 3 on SW48 cells. The cytotoxicity of compounds of interest were tested against the human colon cancer cell line SW48 as described in the experimental section. SW48 cells express the wild type kRAS but are driven by an EGF receptor mutation G1255A. Compounds were incubated with cells for 48 hours and the assay was developed using Cell Titer Glo 2.0. IC50 vales were determined using GraphPad Prism 4.
as §1
For dose-response assays, SW480 cells were plated into 96 well plates (1 million/plate, ˜10,000/well, 250 μL media/well). Cells were allowed to settle and adhere to plate bottom overnight Compounds were placed in 500 μL media and mixed. […] Luminescence was read with FLx800 (BioTek Instruments).

Capan-1 cells = test: Cytotoxicity assay, CellTiter-Glo 2.0, Capan-1 cells; assay type: cell-based; conditions: Capan 1, human pancreatic cancer cell line expressing kRAS G12V; 48 hours
Experimental: FIG. 5, panels A-B, illustrates the cytotoxicity of Structure 2 and Structure 3 on Capan-1 cells. The cytotoxicity of compounds of interest were tested against the human pancreatic cancer cell line Capan-1 as described in the experimental section. Capan-1 cells express a mutant G12V kRAS. Compounds were incubated with cells for 48 hours and the assay was developed using Cell Titer Glo 2.0. IC50 vales were determined using GraphPad Prism 4.
as §1, §2

H322 = test: Cytotoxicity assay, H322 cells; assay type: cell-based; conditions: H322, human lung cancer cell line expressing wild type kRAS
Experimental: as §1

Cc1nc(-c2ccc(CNC(=O)c3cc(CC(C)C)nn3C)cc2)no1 [Structure 2, 3-isobutyl-1-methyl-N-(4-(5-methyl-1,2,4-oxadiazol-3-yl)benzyl)-1H-pyrazole-5-carboxamide]
Vd/F ([1]; CD-1, mouse, plasma, plasma, read-out: Vz/F): 0.532 L/kg | mean resident times (MRT) [1]: approximately one to two | AUCINF ([1]; plasma): 10.92 (Microgram * Hour)/mL | AUC_%Extrap ([1]; plasma): 1.92% | AUClast ([1]; plasma): 10.71 (Microgram * Hour)/mL | CI/F ([1]; plasma): 4.58 mL/min/kg | Concentrationmax ([1]; plasma): 5.74 Microgram/mL | Lambda_z ([1]; plasma): 0.53 h⁻¹ | MRTINF ([1]; plasma): 2.15 h | MRTlast ([1]; plasma): 2.00 h | Timelast ([1]; plasma): 8.00 h | concentration at 8 Hour ([1]; mouse, plasma, read-out: Concentrationlast): 110 ng/mL | IC50 (SW480 cells): 232 nM | not cytotoxic at concentrations up to [2]: > 40 µM | IC50 (SW900 cells): 351 nM | reversion of cell phenotype (morphology) (HT-1080 cells): produced reversion of cell phenotype from the rounded to the flatter more elongated morphology | IC50 (SW48 cells): 607 nM | IC50 (Capan-1 cells): 1300 nM | not cytotoxic at concentrations up to (H322): > 200 µM
